In brackets after ≈: the same amount, converted by molar mass.
Experiments:
[1] = biological target: Glutamate [NMDA] receptor; test: Displacement of [3H]L-689560 from NMDA receptor (unknown origin); assay type: protein-complex assay, Homo sapiens
[2] = biological target: Glutamate [NMDA] receptor; test: Displacement of [3H]NMDA from NMDA receptor (unknown origin); assay type: protein-complex assay, Homo sapiens
[3] = Aqueous solubility of the compound; assay type: physicochemical; details: buffer
Anopheles sp. [4] = test: Larvicidal activity against Anopheles at 1 ug/ml; assay type: functional; details: dose 1.0 µg/ml
Anopheles sp. [5] = test: Larvicidal activity against Anopheles at 0.5 ug/ml; assay type: functional; details: dose 0.5 µg/ml
Anopheles sp. [6] = test: Larvicidal activity against Anopheles at 0.25 ug/ml; assay type: functional; details: dose 0.25 µg/ml
Anopheles sp. [7] = test: Larvicidal activity against Anopheles at 0.1 ug/ml; assay type: functional; details: dose 0.1 µg/ml
[8] = biological target: T1, Fibroblast growth factor receptor 1 (Homo sapiens, UniProt P11362); test: Inhibition of FGFR1 (unknown origin) using ULight-JAK-1 (Tyr1023) peptide as substrate incubated for 90 mins and measured after 1 hr by LANCE Ultra TR-FRET assay
Target sequence in this assay (P11362 whole entry): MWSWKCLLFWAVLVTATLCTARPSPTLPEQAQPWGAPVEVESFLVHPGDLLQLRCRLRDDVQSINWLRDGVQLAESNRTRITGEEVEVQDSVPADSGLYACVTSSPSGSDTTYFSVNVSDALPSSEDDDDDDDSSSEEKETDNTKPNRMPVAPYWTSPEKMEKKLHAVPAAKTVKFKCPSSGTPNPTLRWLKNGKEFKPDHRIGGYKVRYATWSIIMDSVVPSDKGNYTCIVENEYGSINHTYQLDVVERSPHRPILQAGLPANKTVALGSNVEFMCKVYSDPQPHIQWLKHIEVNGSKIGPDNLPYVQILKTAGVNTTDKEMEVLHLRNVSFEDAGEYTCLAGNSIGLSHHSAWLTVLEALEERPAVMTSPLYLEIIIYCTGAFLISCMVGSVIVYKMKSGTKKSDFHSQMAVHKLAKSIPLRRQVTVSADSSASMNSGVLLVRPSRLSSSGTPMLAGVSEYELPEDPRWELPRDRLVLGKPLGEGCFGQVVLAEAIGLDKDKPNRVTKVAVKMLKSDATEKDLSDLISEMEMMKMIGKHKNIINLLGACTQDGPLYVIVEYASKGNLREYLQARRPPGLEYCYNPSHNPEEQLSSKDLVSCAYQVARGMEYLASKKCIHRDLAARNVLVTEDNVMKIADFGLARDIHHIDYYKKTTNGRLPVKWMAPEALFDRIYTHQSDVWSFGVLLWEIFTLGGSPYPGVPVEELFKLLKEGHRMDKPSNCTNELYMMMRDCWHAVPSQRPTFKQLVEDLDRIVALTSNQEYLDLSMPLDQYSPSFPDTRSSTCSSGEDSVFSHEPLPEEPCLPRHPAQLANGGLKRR

HeLa 229 = test: Antiproliferative activity against human HeLa 229 cells after 72 hrs by MTT assay; assay type: functional, cell-based; details: HeLa 229, 72 h
NCI-H460 = test: Antiproliferative activity against human NCI-H460 cells after 72 hrs by MTT assay; assay type: functional, cell-based; details: NCI-H460, 72 h
HCT-116 = test: Antiproliferative activity against human HCT-116 cells after 72 hrs by MTT assay; assay type: functional, cell-based; details: HCT-116, 72 h
B16-F10 = test: Antiproliferative activity against mouse B16-F10 cells after 72 hrs by MTT assay; assay type: functional, cell-based; details: B16-F10, 72 h
L02 = test: Antiproliferative activity against human HL7702 cells after 72 hrs by MTT assay; assay type: functional, cell-based; details: L02, 72 h
[9] = biological target: T1, Fibroblast growth factor receptor 1; test: Inhibition of FGFR1 (unknown origin) using ULight-JAK-1 (Tyr1023) peptide as substrate incubated for 90 mins at 10 uM and measured after 1 hr by LANCE Ultra TR-FRET assay relative to control
Target sequence in this assay (P11362 22-822 limits assumed): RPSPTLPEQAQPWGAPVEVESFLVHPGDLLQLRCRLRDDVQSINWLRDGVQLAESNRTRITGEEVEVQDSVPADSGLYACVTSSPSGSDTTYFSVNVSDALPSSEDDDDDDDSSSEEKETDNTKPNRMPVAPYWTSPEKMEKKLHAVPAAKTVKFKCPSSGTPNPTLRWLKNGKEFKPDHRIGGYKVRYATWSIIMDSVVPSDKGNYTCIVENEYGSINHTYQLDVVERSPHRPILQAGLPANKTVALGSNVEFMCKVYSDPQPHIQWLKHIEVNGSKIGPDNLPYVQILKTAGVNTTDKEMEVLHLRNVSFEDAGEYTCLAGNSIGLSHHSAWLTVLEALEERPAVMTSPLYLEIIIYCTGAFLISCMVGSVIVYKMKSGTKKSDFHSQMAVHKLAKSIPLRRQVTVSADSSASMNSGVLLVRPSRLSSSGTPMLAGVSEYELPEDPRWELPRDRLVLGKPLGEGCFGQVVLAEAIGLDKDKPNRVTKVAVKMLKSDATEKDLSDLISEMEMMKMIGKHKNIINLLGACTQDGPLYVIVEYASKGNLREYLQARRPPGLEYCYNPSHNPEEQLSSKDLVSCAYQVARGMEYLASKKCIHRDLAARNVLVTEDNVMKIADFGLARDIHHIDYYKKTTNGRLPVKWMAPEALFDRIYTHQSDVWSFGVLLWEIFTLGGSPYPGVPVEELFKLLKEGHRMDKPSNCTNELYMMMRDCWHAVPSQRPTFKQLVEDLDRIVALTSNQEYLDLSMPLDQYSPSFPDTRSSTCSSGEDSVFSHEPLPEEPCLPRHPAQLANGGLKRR

[10] = Drug metabolism in human liver microsomes; assay type: ADME, Microsome; details: read-out: Drug metabolism
HeLa S3 = test: Cytotoxicity against human HeLa S3 cells; assay type: functional, cell-based
HT-29 = test: Antiproliferative activity against human HT-29 cells; assay type: functional, cell-based
HeLa = test: Antiproliferative activity against human HeLa cells; assay type: functional, cell-based
SMMC-7721 = test: Antiproliferative activity against human SMMC-7721 cells; assay type: functional, cell-based
Alpha amylase = biological target: T2, Alpha amylase (Homo sapiens, UniProt P0DUB6); test: Inhibition of alpha-amylase (unknown origin)
T2 sequence (P0DUB6 whole entry): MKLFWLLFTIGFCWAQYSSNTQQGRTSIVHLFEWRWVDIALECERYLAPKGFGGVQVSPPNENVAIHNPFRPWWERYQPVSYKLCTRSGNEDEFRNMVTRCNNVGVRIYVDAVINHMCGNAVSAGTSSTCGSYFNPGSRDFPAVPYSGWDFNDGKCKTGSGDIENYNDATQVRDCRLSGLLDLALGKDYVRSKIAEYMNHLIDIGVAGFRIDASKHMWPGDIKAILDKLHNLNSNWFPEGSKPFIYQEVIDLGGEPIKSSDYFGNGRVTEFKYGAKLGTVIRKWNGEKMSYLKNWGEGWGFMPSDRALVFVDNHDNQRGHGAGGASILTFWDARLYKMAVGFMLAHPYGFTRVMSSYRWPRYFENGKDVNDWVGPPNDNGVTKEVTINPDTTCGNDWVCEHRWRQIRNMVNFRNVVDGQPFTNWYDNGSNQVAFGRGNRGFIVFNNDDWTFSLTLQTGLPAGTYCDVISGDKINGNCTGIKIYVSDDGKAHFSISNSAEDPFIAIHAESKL

[11] = biological target: Phospholipase A2, major isoenzyme (Sus scrofa, UniProt P00592); test: Inhibition of porcine PLA2G1B
[12] = biological target: T3, Phospholipase A2, membrane associated (Homo sapiens, UniProt P14555); test: Inhibition of human PLA2G2A
T3 sequence (P14555 whole entry): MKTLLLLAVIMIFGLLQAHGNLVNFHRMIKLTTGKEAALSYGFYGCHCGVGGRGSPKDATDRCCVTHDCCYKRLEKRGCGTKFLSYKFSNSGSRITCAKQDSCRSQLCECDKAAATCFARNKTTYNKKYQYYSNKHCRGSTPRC

Phospholipase A2 group V = biological target: T4, Phospholipase A2 group V (Homo sapiens, UniProt P39877); test: Inhibition of human PLA2G5
T4 sequence (P39877 whole entry): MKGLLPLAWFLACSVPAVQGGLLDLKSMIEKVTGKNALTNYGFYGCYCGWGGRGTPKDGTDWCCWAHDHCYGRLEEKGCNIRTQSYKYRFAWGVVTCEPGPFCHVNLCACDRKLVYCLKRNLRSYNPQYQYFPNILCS

[13] = biological target: T5, Group 10 secretory phospholipase A2 (Homo sapiens, UniProt O15496); test: Inhibition of human PLA2G10
T5 sequence (O15496 whole entry): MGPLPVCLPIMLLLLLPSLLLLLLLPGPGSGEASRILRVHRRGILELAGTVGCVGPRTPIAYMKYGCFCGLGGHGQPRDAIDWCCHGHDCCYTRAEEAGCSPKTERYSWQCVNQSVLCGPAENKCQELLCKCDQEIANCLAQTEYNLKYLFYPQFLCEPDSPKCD

[14] = biological target: T6, Group XIIA secretory phospholipase A2 (Homo sapiens, UniProt Q9BZM1); test: Inhibition of human PLA2G12A
T6 sequence (Q9BZM1 whole entry): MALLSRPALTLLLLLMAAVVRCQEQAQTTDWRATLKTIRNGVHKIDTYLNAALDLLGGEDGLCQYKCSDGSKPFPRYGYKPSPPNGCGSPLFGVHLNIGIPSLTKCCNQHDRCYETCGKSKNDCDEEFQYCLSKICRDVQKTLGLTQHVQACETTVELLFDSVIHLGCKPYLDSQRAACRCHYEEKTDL

Pseudomonas aeruginosa = test: Antibacterial activity against Pseudomonas aeruginosa; assay type: functional
Candida = test: Antifungal activity against Candida species; assay type: functional
[15] = biological target: Kappa-type opioid receptor (Homo sapiens, UniProt P41145); test: Antagonist at KOR expressed in human U2OS cells measured by High content imaging based beta-arrestin translocation assay; assay type: cell-based
[16] = biological target: Glutamate [NMDA] receptor; test: Displacement of [3H]DCKA from NMDA receptor (unknown origin); assay type: protein-complex assay, Homo sapiens
[17] = biological target: Glutamate [NMDA] receptor; test: Displacement of [3H]CGP-39653 from NMDA receptor (unknown origin); assay type: protein-complex assay, Homo sapiens
[18] = biological target: Glutamate [NMDA] receptor; test: Displacement of [3H]kainic acid from NMDA receptor (unknown origin); assay type: protein-complex assay, Homo sapiens
[19] = Displacement of [3H]AMPA from NMDA receptor (unknown origin); assay type: protein-complex assay, Homo sapiens
Homo sapiens [20] = species on record: Homo sapiens; test: Ratio IC50 for inhibition of JNK1 (unknown origin) over JNK3 (unknown origin)
Homo sapiens [21] = species on record: Homo sapiens; test: Ratio IC50 for inhibition of JNK2 (unknown origin) over JNK3 (unknown origin)
Escherichia coli = test: Antibacterial activity against Escherichia coli; assay type: functional
[22] = tested on: Geobacillus stearothermophilus; test: Antibacterial activity against Bacillus stearothermophilus; assay type: functional
Bacillus subtilis = test: Antibacterial activity against Bacillus subtilis; assay type: functional
Bacillus anthracis = test: Antibacterial activity against Bacillus anthracis; assay type: functional
Enterococcus faecalis = test: Antibacterial activity against Enterococcus faecalis; assay type: functional
Bacillus cereus = test: Antibacterial activity against Bacillus cereus; assay type: functional
Klebsiella pneumoniae = test: Antibacterial activity against Klebsiella pneumoniae; assay type: functional
Shigella dysenteriae = test: Antibacterial activity against Shigella dysenteriae; assay type: functional
Staphylococcus aureus = test: Antibacterial activity against Staphylococcus aureus; assay type: functional
Trypanosoma brucei = test: Antitrypanosomal activity against Trypanosoma brucei; assay type: functional, organism-based
[23] = Cytotoxicity against rat myoblast L6 cells; assay type: toxicity, cell-based
[24] = Ratio IC50 for cytotoxicity against rat myoblast L6 cells over IC50 for antitrypanosomal activity against Trypanosoma brucei; assay type: toxicity, cell-based; details: read-out: Ratio IC50

Sequence of Phospholipase A2, major isoenzyme (P00592 whole entry): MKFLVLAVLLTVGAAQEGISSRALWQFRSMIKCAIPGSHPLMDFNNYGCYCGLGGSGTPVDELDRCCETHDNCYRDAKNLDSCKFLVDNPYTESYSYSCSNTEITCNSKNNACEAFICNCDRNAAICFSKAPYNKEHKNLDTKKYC
Sequence of Kappa-type opioid receptor (P41145 whole entry): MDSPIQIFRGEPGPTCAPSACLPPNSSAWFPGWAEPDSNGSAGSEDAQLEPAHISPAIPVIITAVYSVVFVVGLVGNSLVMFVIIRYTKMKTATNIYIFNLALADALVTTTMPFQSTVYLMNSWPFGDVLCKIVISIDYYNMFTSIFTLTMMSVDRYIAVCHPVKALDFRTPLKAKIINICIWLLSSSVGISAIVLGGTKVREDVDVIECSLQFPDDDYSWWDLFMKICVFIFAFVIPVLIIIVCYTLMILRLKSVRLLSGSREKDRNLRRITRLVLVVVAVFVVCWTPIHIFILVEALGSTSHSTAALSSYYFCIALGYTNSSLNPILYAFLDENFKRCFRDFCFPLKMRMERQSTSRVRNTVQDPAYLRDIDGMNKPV

CCCn1cnc(Cc2c(Cl)c(Cl)cc3nc(O)c(O)nc23)c1
IC50 [1]: 0.0044 µM
IC50 [2]: 0.35 µM
solubility [3]: > 10 mg/mL

COc1ccc2nc(-c3ccccc3)c(=O)n(CC#N)c2c1
Activity (Anopheles sp. [4]): 73.7%
Activity (Anopheles sp. [5]): 66.7%
Activity (Anopheles sp. [6]): 66.7%
Activity (Anopheles sp. [7]): 60%

O=c1[nH]c2ccccc2nc1/C=C/c1ccccn1
IC50 [8]: 15.3 µM
IC50 (HeLa 229): 2.89 µM
IC50 (NCI-H460): 0.46 µM
IC50 (HCT-116): 0.27 µM
IC50 (B16-F10): 0.058 µM
IC50 (L02): > 100 µM
inhibition [9]: 79.3%

O=c1c(-c2cccc([N+](=O)[O-])c2)nc2ccccc2n1Cc1ccccc1
metabolised [10]: < 40%

CCC(C)C1Nc2ccccc2NC1=O (centres undefined)
IC50 (HeLa S3): 17.2 µM

COC(=O)c1ccc2c(c1)NCCN2Cc1cc(OC)c(OC)c(OC)c1
IC50 (HT-29): 0.51 µM
IC50 (HeLa): 0.194 µM
IC50 (SMMC-7721): 0.427 µM

O=c1[nH]c2ccccc2n2c(-c3ccc([N+](=O)[O-])cc3[N+](=O)[O-])ccc12
IC50 (Alpha amylase): 806.19 µM
IC50 [11]: 13.6 µM
IC50 [12]: 0.76 µM
IC50 (Phospholipase A2 group V): 1.53 µM
IC50 [13]: 1.05 µM
IC50 [14]: 2.58 µM

CCOC(=O)c1nc2ccc(C)cc2[nH]c1=O
MIC (Pseudomonas aeruginosa): 250 mg/L (≈ 1080 µM)
MIC (Candida): 250 mg/L (≈ 1080 µM)

COc1ccc(N2CCN(CCCNC(=O)Cn3c(=O)c4cccn4c4cccnc43)CC2)cc1
IC50 [15]: 0.173 µM

O=C(CC1CCc2cc(Br)cc3[nH]c(=O)c(=O)n1c23)Nc1ccccc1 (centres undefined)
Ki [16]: 0.0026 µM
IC50 [17]: > 25 µM
IC50 [18]: > 25 µM
IC50 [19]: 4.6 µM

O=C1Nc2ccccc2N/C1=C\C(=O)c1cccc2ccccc12
Ratio IC50 (Homo sapiens [20]): > 400
Ratio IC50 (Homo sapiens [21]): > 400

O=C1CC(c2ccccc2)=NN1c1nc2ccccc2[nH]c1=O
MIC (Pseudomonas aeruginosa): 31.3 mg/L (≈ 103 µM)
MIC (Escherichia coli): 15.6 mg/L (≈ 51.3 µM)
MIC [22]: 15.6 mg/L (≈ 51.3 µM)
MIC (Bacillus subtilis): 7.8 mg/L (≈ 25.6 µM)
MIC (Bacillus anthracis): 7.8 mg/L (≈ 25.6 µM)
MIC (Enterococcus faecalis): 7.8 mg/L (≈ 25.6 µM)
MIC (Bacillus cereus): 7.8 mg/L (≈ 25.6 µM)
MIC (Klebsiella pneumoniae): 7.8 mg/L (≈ 25.6 µM)
MIC (Shigella dysenteriae): 62.5 mg/L (≈ 205 µM)

C/C(=N\Nc1nc2ccccc2[nH]c1=O)c1cc2cc(Cl)ccc2oc1=O
MIC (Escherichia coli): 7.8 mg/L (≈ 20.5 µM)
MIC (Staphylococcus aureus): 15.6 mg/L (≈ 41 µM)
MIC [22]: 7.8 mg/L (≈ 20.5 µM)
MIC (Bacillus subtilis): 7.8 mg/L (≈ 20.5 µM)
MIC (Bacillus anthracis): 7.8 mg/L (≈ 20.5 µM)
MIC (Bacillus cereus): 7.8 mg/L (≈ 20.5 µM)
MIC (Klebsiella pneumoniae): 7.8 mg/L (≈ 20.5 µM)
MIC (Shigella dysenteriae): 15.6 mg/L (≈ 41 µM)

O=C1Nc2cc([N+](=O)[O-])ccc2N2CCCC12 (centres undefined)
IC50 (Trypanosoma brucei): 2.7 µM
IC50 [23]: 46.7 µM
selectivity ratio [24]: 17.4

O=c1[nH]c2ccccc2n2c(-c3ccc(O)cc3O)ccc12
IC50 (Alpha amylase): 1087.43 µM
IC50 [11]: 14.8 µM
IC50 [12]: 1.32 µM
IC50 (Phospholipase A2 group V): 1.05 µM
IC50 [13]: 0.61 µM
IC50 [14]: 0.91 µM

O=c1[nH]c2ccccc2n2c(-c3ccc(Cl)c(Cl)c3)ccc12
IC50 (Alpha amylase): 431.81 µM
IC50 [11]: 14.5 µM
IC50 [12]: 1.81 µM
IC50 (Phospholipase A2 group V): 3.04 µM
IC50 [13]: 2.71 µM
IC50 [14]: 1.41 µM

CN1CC(=O)N(C)c2cc([N+](=O)[O-])ccc21
IC50 (Trypanosoma brucei): 3.6 µM
IC50 [23]: 78.2 µM
selectivity ratio [24]: 21.6
